Reference: patent publication US20210181109A1 (FUJIFILM Corporation, priority 2018, published 2021)
Read-outs that look alike come from different tables or passages of the source.

Legend:
[1] = Average score of NAC and NAL depletion and prediction of skin allergenicity, UV method; conditions: for Average score: test substance solution 1 mmol/L
Method in brief: (§1)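 Score is the mean of NAC and NAL depletion percentages, rounded at the second decimal place. Test substances classed as allergenic (S) or non-allergenic (NS) from depletion of NAC, NAL, or their average score.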

[2] = NAL depletion percent, HPLC-UV detection (281 nm); conditions: single substance, test substance solution 1 mmol/L, Reference (UV method)
Method in brief: (§2)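 NAL (5 μmol/L, pH 10.2 phosphate buffer) reacted with test substance (1 mmol/L stock in water, acetonitrile, acetone or 5% DMSO/acetonitrile) for 24 h at 25 °C in the dark; stopped with TFA to 0.5%. Unreacted NAL quantified by HPLC (UV or fluorescence), n=3; depletion % relative to substance-free blank.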

[3] = cited from earlier work
[4] = NAL depletion percent, HPLC-fluorescence detection; conditions: single substance, test substance solution 1 mmol/L, fluorescence method
Method in brief: as §2

[5] = NAC depletion percent, HPLC-UV detection (281 nm); conditions: single substance, test substance solution 1 mmol/L, Reference (UV method)
Method in brief: (§3)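 NAC at 5 μmol/L in pH 8.0 phosphate buffer reacted with test substance (1 mmol/L stock in water, acetonitrile, acetone or 5% DMSO/acetonitrile) 24 h at 25 °C in the dark, n=3. Stopped with TFA (0.5% final); unreacted NAC quantified by HPLC, depletion percent calculated against blank without test substance.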

[6] = NAC depletion percent, HPLC-fluorescence detection; conditions: single substance, test substance solution 1 mmol/L, fluorescence method
Method in brief: as §3

[7] = Average score of NAC and NAL depletion and prediction of skin allergenicity, fluorescence method; conditions: for Average score: test substance solution 1 mmol/L
Method in brief: as §1

[8] = single substance, Reference (UV method), criterion average score […]
[9] = single substance, Reference (UV method)
[10] = known values, LLNA-test-based classification, − for non-allergenic substances
[11] = single substance, fluorescence method, criterion average score […]
[12] = single substance, fluorescence method

SMILES	Prediction result [1, 8]	Average score [1, 9] [%]	NAL depletion (%) [2] [%]	EC3 (%) [3, 10] [%]	NAL depletion (%) [4] [%]	NAC depletion (%) [5] [%]	NAC depletion (%) [6] [%]	Prediction result [7, 11]	Average score [7, 12] [%]	Prediction result [1]	EC3 (%) ([3]; in vivo)	Prediction result [7]
Sc1nc2ccccc2s1 [2-Mercaptobenzothiazole]	S (S represents as being an allergenic substance)	28.4	0.3	1.7	0.0	56.6	65.5	S (S represents as being an allergenic substance)	32.7	–	–	–
O=C(O)c1ccc2c(c1)C(=O)OC2=O [Trimellitic anhydride]	S (S represents as being an allergenic substance)	49.4	97.0	0.6	94.2	1.9	0.8	S (S represents as being an allergenic substance)	47.5	–	–	–
CC(CC=O)CCCC(C)(C)O (stereo not drawn) [Hydroxycitronellal]	S (S represents as being an allergenic substance)	9.5	1.5	33	0.0	17.5	16.0	S (S represents as being an allergenic substance)	8.0	–	–	–
CCC/C=C/C=O [trans-2-Hexanal]	S (S represents as being an allergenic substance)	46.3	12.3	5.5	11.4	80.4	97.9	S (S represents as being an allergenic substance)	54.6	–	–	–
O=c1[nH]sc2ccccc12 [1,2-Benzisothiazolin-3-one]	–	50.2	0.4	–	0.2	100.0	98.8	–	49.5	S (key: S represents as being an allergenic substance; NS represents as being a non-allergenic substance)	2.3	S (key: S represents as being an allergenic substance; NS represents as being a non-allergenic substance)
O=CC=O [Glyoxal]	–	6.8	0.8	–	0.4	12.8	24.9	–	12.7	S (key: S represents as being an allergenic substance; NS represents as being a non-allergenic substance)	1.4	S (key: S represents as being an allergenic substance; NS represents as being a non-allergenic substance)
CCCOC(=O)c1cc(O)c(O)c(O)c1 [Propyl gallate]	S (S represents as being an allergenic substance)	76.7	56.4	0.32	65.3	97.1	100.0	S (S represents as being an allergenic substance)	82.6	–	–	–
CCCCCCCCC(=O)Cl [Nonanoyl chloride]	S (S represents as being an allergenic substance)	23.4	39.4	1.8	54.5	7.4	8.9	S (S represents as being an allergenic substance)	31.7	–	–	–
CNc1ccc(O)cc1.CNc1ccc(O)cc1.O=S(=O)(O)O [Metol]	S (S represents as being an allergenic substance)	61.4	22.8	0.8	15.9	100.0	100.0	S (S represents as being an allergenic substance)	57.9	–	–	–
